In patent US7151105B2, “Inhibitors of Hepatitis C virus RNA-dependent RNA polymerase, and compositions and treatments using the same” (Agouron Pharmaceuticals, Inc., priority 2004, dated 2006) one finds IC50 data, which are given here for 10 compounds.

The term IC50 denotes the concentration at which inhibition is half-maximal.

For the assay, the target named is T1, Recombinant HCV polymerase (Hepatitis C virus genotype 1b, UniProt P26663).
T1 construct: Recombinant HCV polymerase was tested for its ability to perform primer/template-directed transcription
T1 sequence (P26663 2420-3010): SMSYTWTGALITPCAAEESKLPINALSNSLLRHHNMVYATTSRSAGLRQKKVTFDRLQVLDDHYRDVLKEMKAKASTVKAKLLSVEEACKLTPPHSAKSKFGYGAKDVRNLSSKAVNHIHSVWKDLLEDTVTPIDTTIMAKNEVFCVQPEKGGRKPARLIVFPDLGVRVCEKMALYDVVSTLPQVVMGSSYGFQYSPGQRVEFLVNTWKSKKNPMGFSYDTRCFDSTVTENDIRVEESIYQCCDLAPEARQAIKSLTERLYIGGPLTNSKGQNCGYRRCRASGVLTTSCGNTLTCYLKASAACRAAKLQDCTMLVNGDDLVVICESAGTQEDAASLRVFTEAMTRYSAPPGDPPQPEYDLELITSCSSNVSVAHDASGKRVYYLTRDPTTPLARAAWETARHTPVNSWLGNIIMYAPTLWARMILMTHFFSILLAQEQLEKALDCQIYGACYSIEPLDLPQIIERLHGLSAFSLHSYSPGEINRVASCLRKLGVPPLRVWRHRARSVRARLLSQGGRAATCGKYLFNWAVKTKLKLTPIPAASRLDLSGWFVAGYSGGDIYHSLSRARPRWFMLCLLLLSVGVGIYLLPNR
The assay is described as follows: biochemical. Particulars: inhibition of polymerase-directed transcription; 30 min at 30° C; 30 nM enzyme; cpm data in triplicate. Summed up: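 Primer/template-directed RNA synthesis by 2.5 pmol HCV polymerase on poly(rC)300/biotin-dG12 with 1 μM GTP plus α-32P-GTP, in pH 7.2 Tris buffer with 10 mM MgCl2, for 30 min at 30 °C. Products were filter-captured and counted, with 1% DMSO final. IC50 was fitted from triplicate cpm; percent inhibition was reported where IC50 was impractical.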
Turning to `Cc1c(CC2=C(O)CC(CCc3ccc(C(C)(C)C#N)c(F)c3)(C3CCCC3)OC2=O)cnn1C` (stereo not shown) [A(94), 2-[4-(2-{2-Cyclopentyl-5-[(1,5-dimethyl-1H-pyrazol-4-yl)methyl]-4-hydroxy-6-oxo-3,6dihydro-2H-pyran-2-yl}ethyl)-2-fluorophenyl]-2-methylpropanenitrile], the IC50 came out at 27 nM. The value for `CCc1cc(CCC2(C3CCCC3)CC(O)=C(Cc3nc4ncc(C)cn4n3)C(=O)O2)ccc1Cn1cccn1` (stereo not shown) [A(113), 6-Cyclopentyl-6-{2-[3-ethyl-4-(1H-pyrazol-1-ylmethyl)phenyl]ethyl}-4-hydroxy-3-[(6-methyl[1,2,4]triazolo[1,5-a]pyrimidin-2-yl)methyl]-5,6-dihydro-2H-pyran-2-one] was 7 nM; that for `CCc1cc(CCC2(C3CCCC3)CC(O)=C(Cc3nc4nc(C)cc(C)n4n3)C(=O)O2)ccc1Cn1cncn1` (stereo not shown) [A(110), 6-Cyclopentyl-3-[(5,7-dimethyl[1,2,4]triazolo[1,5-a]pyrimidin-2-yl)methyl]-6-{2-[3-ethyl-4-(1H-1,2,4-triazol-1-ylmethyl)phenyl]ethyl}-4-hydroxy-5,6-dihydro-2H-pyran-2-one] was 6 nM; that for `CC(C)(C#N)c1ccc(CCC2(C3CCCC3)CC(O)=C(Cc3cn4nccnc4n3)C(=O)O2)cc1Cl` (stereo not shown) [B(14), 2-(2-Chloro-4-{2-[2-cyclopentyl-4-hydroxy-5-(imidazo[1,2-b][1,2,4]triazin-6-ylmethyl)-6-oxo-3,6-dihydro-2H-pyran-2-yl]ethyl}phenyl)-2-methylpropanenitrile] was 26 nM. The value for `CCc1cc(CCC2(C3CCCC3)CC(=O)CC(=O)O2)c(OC)cn1` (stereo not shown) [A(2), 6–Cyclopentyl-6-[2-(2-ethyl-5-methoxypyridin-4-yl)ethyl]dihydro-2H-pyran-2,4(3H)-dione] was 620 nM; that for `CCOc1cnc(CC)cc1CCC1(C2CCCC2)CC(O)=C(Cc2nc3ncc(C)cn3n2)C(=O)O1` (single isomer, unassigned) [A(55), 6-Cyclopentyl-6-[2-(5-ethoxy-2-ethylpyridin-4-yl)ethyl]-4-hydroxy-3-[(6-methyl[1,2,4]triazolo[1,5-a]pyrimidin-2-yl)methyl]-5,6-dihydro-2H-pyran-2-one] was 2 nM.

As to `Cc1cnc2nc(CC3=C(O)CC(CCc4ccc(C(C)(C)C#N)c(C)c4)(C4CCCC4)OC3=O)nn2c1` (stereo not shown) [A(78), 2-[4-(2-{2-Cyclopentyl-4-hydroxy-5-[(6-methyl[1,2,4]triazolo[1,5-a]pyrimidin-2-yl)methyl]-6-oxo-3,6-dihydro-2H-pyran-2-yl}ethyl)-2-methylphenyl]-2-methylpropanenitrile], the IC50 turned out to be 12 nM.

`CC(C)(O)c1ccc(CCC2(C3CCCC3)CC(O)=C(Cc3nc4ncccn4n3)C(=O)O2)cc1Cl` (stereo not shown) [B(35), 6-{2-[3-Chloro-4-(1-hydroxy-1-methylethyl)phenyl]ethyl}-6-cyclopentyl-4-hydroxy-3-([1,2,4]triazolo[1,5-a]pyrimidin-2-ylmethyl)-5,6-dihydro-2H-pyran-2-one]: the concentration for half-maximal inhibition (IC50) is 10 nM.

With `Cc1cc(C)n2nc(CC3=C(O)CC(CCc4ccc(C(=O)O)c(F)c4)(C4CCCC4)OC3=O)nc2n1` (stereo not shown) [B(11), 4-(2-{2-Cyclopentyl-5-[(5,7-dimethyl[1,2,4]triazolo[1,5-a]pyrimidin-2-yl)methyl]-4-hydroxy-6-oxo-3,6dihydro-2H-pyran-2-yl}ethyl)-2-fluorobenzoic acid], the 50% inhibitory concentration (IC50) is 260 nM. The value for `COc1cc(O)c(C(C)=O)cc1CCC1(C2CCCC2)CC(O)=C(Cc2nc3nc(C)cc(C)n3n2)C(=O)O1` (stereo not shown) [A(98), 6-[2-(5-Acetyl-4-hydroxy-2-methoxyphenyl)ethyl]-cyclopentyl-3-[(5,7-dimethyl[1,2,4]triazolo[1,5-a]pyrimidin-2-yl)methyl]-4-hydroxy-5,6-dihydro-2H-pyran-2-one] was 11 nM.
